Point of comparison: `SCCNc1nc(-c2ccccc2)c2cc(Cl)ccc2n1`, melting point 166 °C. Against it:
- N#Cc1cccc(-c2nc(Nc3ccc(C(=O)O)cc3)sc2-c2ccnnc2)c1 — higher, > 275 °C
- O=[N+]([O-])c1cc(C(F)(F)F)ccc1Sc1nc(-c2ccccc2)c(-c2ccccc2)[nH]1 — higher, 234 to 236 °C
- Cc1cccc(Nn2cnc(C)c2-c2ccccc2)c1 — lower, 159 °C
- CCCc1c(-c2ccc(OC(F)F)c(OC3CC3)c2)[nH]c2cnn(COCC[Si](C)(C)C)c(=O)c12 — higher, 208 to 210 °C
- CC(C)c1ccc(-n2nnc(-c3ccc(OC(=O)C(C)(C)C)cc3)n2)cc1 — lower, 122 to 125 °C
- O=C(O)CNC(=NS(=O)(=O)c1ccccc1)Nc1cccc(Cl)c1 — higher, 218 °C
- CCCCCCCCCCCC1CC(O)C(CCCCCC)C(=O)O1 (stereo unspecified) — lower, 98 to 99 °C
- COCc1c(C(=O)c2ccccc2)ncc2[nH]c3ccc(Oc4nccc5ccccc45)cc3c12 — lower, 159 to 160 °C
- CC1(CN2CCC(C(=O)c3ccc(OC(F)(F)F)cc3)CC2)Cn2cc([N+](=O)[O-])nc2O1 (stereo unspecified) — lower, 113 to 115 °C
- COC(=O)c1cc(Oc2ccnc(Cl)c2)cc2ccccc12 — lower, 103 to 104 °C
- Cc1nc2cc(/C=C/C(=O)NO)ccc2c(=O)n1CCc1ccccc1 — higher, 227 to 229 °C
- CCC(NC(C)=O)c1ccc(CN2CCN(c3ccccc3)CC2)cc1 (stereo unspecified) — lower, 109 to 110 °C
- Cc1ccc2nc3n(c2c1)CCC3 — lower, 118 to 120 °C
- CC(=O)C(=Cc1ccccc1[N+](=O)[O-])C(=O)OCCCl — lower, 82 to 84 °C
- COc1ccc(-n2c(-c3ccc([N+](=O)[O-])cc3)nnc2C(C)O)cc1 (stereo unspecified) — lower, 140 °C
- COCCOCCN1C(=O)C2(c3cc4c(cc3OC2OC)OCCO4)c2c(OC)cccc21 (stereo unspecified) — lower, 109 to 110 °C
- COC(=O)c1c(Cl)nc(N2CCC(O)CC2)nc1NCc1ccc(OC)c(Cl)c1 — lower, 138 to 139 °C
- Fc1ccc(Nc2ncnc3cnc(NCC45CCN(CC4)CC5)nc23)cc1Cl — higher, 221 to 223 °C
- Brc1ccc(CC2=NCCN2)c2ccccc12 — lower, 133 to 135 °C
- O=C1N=CC(OCc2ccccn2)(C(F)(F)F)c2cc(Cl)ccc2N1 (stereo unspecified) — higher, 233 to 235 °C
- COC(=O)c1cn(C2CC2)c2c(F)c(F)c(F)cc2c1=O — higher, 214 to 216 °C
- COC(=O)C1=CCC(NC(C)=O)C1 (stereo unspecified) — lower, 72 to 74 °C
- Clc1ccnc2ncnn12 — higher, 190 °C
- CCCc1nnc2ccc(-c3ccccc3)nn12 — lower, 123 to 125 °C
- CCOC(=O)c1c(O)c2cccnc2n(Cc2ccccc2)c1=O — lower, 143 °C
- C=CCON=Cc1nc(-c2ccc(Cl)c(Cl)c2Cl)cn1S(=O)(=O)N(C)C — lower, 87 to 88 °C
- CCCc1c(C(=O)C(C)C)c2ccc(C(N)=O)cc2n1Cc1ccccc1C(N)=O — higher, 273 to 274 °C
- O=[N+]([O-])c1ccc(Oc2cc(Cl)c(Cl)cc2Cl)c(Cl)c1Oc1ccccc1 — lower, 112 °C
- COc1ccc2sc(=O)[nH]c2c1 — higher, 168 to 170 °C
- OCCCCc1cn(C(c2ccccc2)(c2ccccc2)c2ccccc2)cn1 — lower, 144 to 146 °C
- COCC1(CCCCCCCCCCCCC2(C(=O)NS(C)(=O)=O)CC2)CC1 — lower, 44.6 to 45.3 °C
- CCOC(=O)c1cc(N=c2sc(=O)n3n2CCCC3)c(Cl)cc1Cl — lower, 81 to 83 °C
- CCOC(=O)c1cc(-c2cc(OC)cc(OC)c2)ns1 — lower, 101 to 103 °C
- Cc1ccc(C2SC(=S)N(C(=O)NN3CCOCC3)C2C)cc1 (stereo unspecified) — lower, 101 to 103 °C
- COc1cc(C=NOCc2ccccc2)c([N+](=O)[O-])cc1OC — lower, 109 to 113 °C
- Clc1ccc(OC2CCN(CCc3c[nH]c4ccccc34)CC2)cc1 — lower, 132 to 133 °C
- CCOC(=O)C(=CNC1CC1)C(=O)c1cc(F)c(F)c(Br)c1F — lower, 74 to 76 °C
- CN(CCNC(=C[N+](=O)[O-])SCc1ccccc1)Cc1ccc(Cl)nc1 — lower, 119 to 123 °C
- Cc1ccc2cccc(OCc3cccc(NC(=O)CN4C(=O)c5ccccc5C4=O)c3C)c2n1 — higher, 283 to 285 °C
- O=c1n(CCCF)nnn1-c1cc(Oc2ccc([N+](=O)[O-])cc2)c(Cl)cc1F — lower, 109 to 110 °C
- CCCCc1nc(SC)c(C(=O)O)n1Cc1ccc(-c2ccccc2-c2nnn[nH]2)cc1 — higher, 180 °C
- O=C(O)CCC(=NO)c1ccc(-c2cccc(F)c2)cc1 — lower, 155 to 157 °C
- CC(=O)ON=C(N)c1cccc(C(=O)NCCCNC(=O)[C@@H]2CCCN2S(=O)(=O)c2ccc(Cl)c(COc3cccc4c(C)cc(C)nc34)c2Cl)c1 — lower, 100 to 104 °C
- Cc1c(-c2ncc(Cl)cc2F)nn(C)c1C#N — lower, 144 to 146 °C
- CCOc1nc2cccc(C(=O)OCOC(=O)C(C)(C)C)c2n1Cc1ccc(-c2ccccc2-c2nnn[nH]2)cc1 — lower, 104 to 106 °C
- CC(C)(C)OC(=O)N(O)C(=O)CN — lower, 115 to 117 °C
- O=C(NCCCn1ccnc1)c1[nH]c2ccc(Cl)cc2c1S(=O)(=O)c1ccccc1 — higher, 216 to 218 °C
- CCC(C)(C)c1ccc(OCCCNC(=O)c2cc(N)c3ccccc3c2O)c(C(C)(C)CC)c1 — lower, 120 to 123 °C
- CCCOc1ccc(S(=O)(=O)N2CCNCC2)cc1-c1nc2c(CCC)nn(C)c2c(=O)[nH]1 — higher, 185 to 186 °C
- Nc1cc(F)c(F)c(Br)c1Cl — lower, 83 to 86 °C
- N#Cc1c(C(N)=O)nn2c(-c3cccc(C(F)(F)F)c3)ccnc12 — higher, 236 to 238 °C
- O=c1[nH]c2c(cc1-c1nc(-c3ccccc3)no1)CN(Cc1ccccc1)CC2 — higher, 231 to 233 °C
- NS(=O)(=O)c1ccc(-c2noc(-c3cnc4ccc(-c5ccc(C(F)(F)F)cc5)cn34)n2)cc1 — higher, 288 °C
- Cn1nc(-c2c(F)cccc2Cl)nc1C(O)c1ccc(Cl)cc1 (stereo unspecified) — lower, 141 to 143 °C
- CCOC(=O)C(C#N)C1CC(C)(C)NC(C)(C)C1 (stereo unspecified) — lower, 116 to 117 °C
- C=C(Cc1ccc(Cl)cc1)C(=O)O — lower, 78 to 86 °C
- O=C(Nc1ccc2nc(-c3ccccc3)oc2n1)c1ccccc1 — higher, 191 to 192 °C
- CNC(=O)N1CC(Oc2cc(C(F)(F)F)ccc2F)C1 — lower, 93.5 to 95 °C
- CNC(=O)c1cc2c(nc(C)n2C)c2c1C[C@@H](O)[C@@H](c1ccccc1)N2 — higher, 265 to 268 °C
- CCCN(CCC)C(=O)NC(CS)Cc1ccccc1 (single isomer, unassigned; (+)) — lower, 68 °C
- CCc1onc(-c2ccccc2)c1C(=O)NCCCCl — lower, 75 to 76 °C
- CSSc1ccc([N+](=O)[O-])cc1C(Cl)(Cl)Cl — lower, 76 °C
- CCOP(=O)(NC(=O)c1[nH]c2cc(OC)c(OC)cc2c1-c1ccc(OC)c(OC)c1)OCC — higher, 217 to 219 °C
- COc1c(Cl)ccc(-c2cc(N)c(Cl)c(C(=O)NOCc3ccoc3)n2)c1F — lower, 160 to 162 °C
- CCC(=O)N1C(=O)OC(C)(C)[C@H]1c1ccccc1 — lower, 60 °C
- CN1CCc2cc(O)c(O)c(SCc3ccco3)c2CC1 — lower, 162 to 165 °C
- CCOC(=O)c1c(-c2ccccc2Cl)c2cc(CC)ccc2[nH]c1=O — higher, 199 to 200 °C
- Cc1ccc2c(c1)NC(=S)C2=O — higher, 246 °C
- CC(=O)NCC1CC1c1ccc(Cl)c2nn(C)cc12 (stereo unspecified) — lower, 153 to 155 °C
- COc1ccc(C2=NN(C3CCN(S(=O)(=O)c4ccccc4OC(F)(F)F)CC3)C(=O)CC2)cc1OC — lower, 118 to 119 °C
- Cc1cn(C(C)(C)C(=O)N(C)C)nc1-c1ccccc1Cl — higher, 175 to 176 °C
- CSc1ccc(C(O)c2occc(=O)c2OCc2ccccc2)cc1 (stereo unspecified) — lower, 82 to 82.5 °C
- Cc1ccc(C2=NNC(=O)C3CC23)cc1 (stereo unspecified) — lower, 162 to 164 °C
- CCCCCCc1cc2c(cc1C(=O)Oc1ccc(C(=O)O)cn1)C(C)(C)CC2 — lower, 104 to 105 °C
- CCOC(=O)c1cn2c3c(cccc3c1=O)CC2(C)C — lower, 117 to 119 °C
- CCCc1cc(Cl)c2occ(C)c2c1O — lower, 49 to 50 °C
- Cc1cc(-c2ccc(C(F)(F)F)c(C)c2)cc(-c2cccc(-c3cccc(S(N)(=O)=O)c3)n2)n1 — higher, > 250 °C
- CC1(C)C(=O)Oc2ccc3cc([N+](=O)[O-])c(Cn4cncn4)cc3c21 — higher, 183 to 185 °C
- COc1cc2oc(=O)c(CCN3CCN(c4ccccc4OC)CC3)c(C)c2cc1OC — higher, 174 to 175 °C
- Cc1cc2cc(CN3CCC(CC(N)=O)CC3)cnc2cc1NC(=O)c1ccc(-c2ccc(F)cc2)cc1 — higher, 249 °C
- C=CC=CN(C(=O)CCl)c1c(C)cccc1C — lower, 88 °C
- COc1ncnc2c(Cl)c(NC(=S)NCCN)ccc12 — higher, 230 to 232 °C
- COC(=O)c1cc(O)cc(OCCCOc2ccc(OCc3ccccc3)cc2)c1 — lower, 120 to 122 °C
- O=CNCc1ccc2[nH]cc(CCNC(=O)OCc3ccccc3)c2c1 — lower, 114 to 116 °C
- CC(=O)O[C@@H]1C(=O)N[C@@H]1c1ccccc1 (relative stereo) — lower, 150 to 151 °C
- CCOC(=O)C(=O)c1cn(CC)c2cc(-c3ccc(OC(F)(F)F)cc3)ccc12 — lower, 114 to 116 °C
- CCOC1(OCC)C[C@@H](C(=O)O)[C@@H]1C(=O)O (relative stereo) — lower, 118 to 120 °C
- Cc1c(C)c(N2CCN(c3ccc(Br)cc3)CC2)c(C)c2c1OC(C)C2 (stereo unspecified) — higher, 202 to 204 °C
- CCC(=O)C1CN(C(c2ccccc2)c2ccccc2)C1 — lower, 73 to 75 °C
- O=C(O)CCCN(Cc1cccc(Cl)c1)Cc1cccc(Cl)c1 — higher, 170 to 173 °C
- CCCCCCCCOC(=O)NCCC(=O)O — lower, 70 to 72 °C
- Nc1c(-c2ccccc2)c(=O)[nH]c2cc(Cl)ccc12 — higher, 337 to 338 °C
- Cc1ccc(N)c(C#Cc2ccccc2)n1 — lower, 154 to 155 °C
- COc1cc(C)c(OC)cc1C — lower, 108 to 110 °C
- CC(C)N1CCN(c2ccc(N)cc2)C(=O)C1 — lower, 156 to 159 °C
- COc1ccc2sc(C(=O)Nc3ccc(CC(=O)O)cc3)c(OC(C)C)c2c1 — higher, 196 °C
- COC1Nc2c(OC(C)=O)cccc2C(=O)N2CCCC12 (stereo unspecified) — lower, 147 to 150 °C
- CN(O)C(=O)c1ccc(CCCCc2ccccc2)cc1 — lower, 62 to 63.5 °C
- CN(C)C(=O)CCN1CCC(C(O)(c2ccc(F)cc2)c2ccc(F)cc2)CC1 — lower, 134 to 135 °C
- COC(=O)c1ccccc1-c1ccc(CNc2nc(Cl)nc3ccccc23)cc1 — lower, 75 to 90 °C

— a melting point compilation (Tetko et al.; mined from patent text by program, amines drawn as free bases though some values may be those of a salt)
